Where a chain is given by its changes, count along the chain named. Names and notes keep the numbering of the source. Where two headings read alike, the source gives them in different places.
Tests used:
G21 (PCFT) [1] = target: T1, G21 (PCFT) (Homo sapiens, UniProt Q96NT5); test: Inhibition of [3H]folic acid uptake into G21 cRNA-injected Xenopus oocytes; format: cell-based; conditions: 20 μM nonlabeled compound, pH 5.5, 30 min
T1 construct: expressed in transfected cells; host or cells: Xenopus laevis oocytes injected with capped G21 cRNA (pSPT64, SP6)
T1 sequence (Q96NT5 1-459): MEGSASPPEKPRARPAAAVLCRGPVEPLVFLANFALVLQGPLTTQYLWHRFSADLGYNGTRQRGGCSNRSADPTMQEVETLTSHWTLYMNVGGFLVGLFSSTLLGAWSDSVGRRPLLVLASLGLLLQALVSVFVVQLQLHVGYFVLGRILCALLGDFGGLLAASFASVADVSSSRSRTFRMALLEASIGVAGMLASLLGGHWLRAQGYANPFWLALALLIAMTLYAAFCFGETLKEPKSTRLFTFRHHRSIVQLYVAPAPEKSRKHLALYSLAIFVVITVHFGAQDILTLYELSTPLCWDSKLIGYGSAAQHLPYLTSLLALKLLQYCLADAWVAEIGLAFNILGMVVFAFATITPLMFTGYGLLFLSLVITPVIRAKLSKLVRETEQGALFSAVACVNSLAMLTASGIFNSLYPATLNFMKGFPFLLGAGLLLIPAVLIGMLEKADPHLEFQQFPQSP
Procedure: Uptake studies in Xenopus oocytes. […] Radiotracer uptake was determined 3 or 4 days later. […] Uptake was halted by the addition of ice-cold MBS (pH 7.5). Oocytes were washed 10 times thereafter, and solubilized with 10% SDS for measurement of radioactivity. To collapse the pH gradient across the oocyte membrane, seven to 10 oocytes were incubated in MBS (pH 5.5) containing 0, 10, 20, 40, 60 μM FCCP for 20 min, and uptake of transport substrates assessed at pH 5.5.

G21 (PCFT) [2] = target: T1, G21 (PCFT); test: Uptake of tritiated folates in G21 cRNA-injected Xenopus oocytes; format: cell-based; conditions: for G21-mediated transport activity: pH 7.5, 2 μM tritiated substrate, 30 min
Procedure: Uptake studies in Xenopus oocytes. Defolliculated Xenopus laevis oocytes were prepared as described (Jansen and Akabas, 2006) and injected with 50 nl of water or G21 cRNA (30 ng). Radiotracer uptake was determined 3 or 4 days later. Seven to 10 oocytes were incubated in 500 μl of Modified Barth's Solution (MBS, in mM, 88 NaCl, 2.4 NaHCO3, 2.5 Na pyruvate, 1 KCl, 0.82 MgSO4, 0.41 CaCl2, 0.3 Ca(NO3)2, 15 MES or HEPES) and uptake of tritiated folate substrates assessed at room temperature. Uptake was halted by the addition of ice-cold MBS (pH 7.5). Oocytes were washed 10 times thereafter, and solubilized with 10% SDS for measurement of radioactivity. To collapse the pH gradient across the oocyte membrane, seven to 10 oocytes were incubated in MBS (pH 5.5) containing 0, 10, 20, 40, 60 μM FCCP for 20 min, and uptake of transport substrates assessed at pH 5.5.

G21 (PCFT) [3] = target: T1, G21 (PCFT); test: Two-electrode voltage-clamp electrophysiology in G21 cRNA-injected Xenopus oocytes; format: cell-based; conditions: for Km: read-out: electrophysiologically determined Km
Procedure: Electrophysiological analyses in Xenopus oocytes. Defolliculated oocytes were injected with 50 nl of water (control) or G21 cRNA (50 ng), and kept at 17° C. in horse serum medium (in mM, 82.5 NaCl, 2.5 KCl, 1 MgCl2, 2.3 CaCl2, 5 HEPES, 5% horse serum, pH 7.5). Electrophysiological recordings were conducted 3-7 days after cRNA injection in buffer (in mM, 90 NaCl, 1 KCl, 1 MgCl2, 1.8 CaCl2, 5 TRIS, 5 MES) as described previously (Jansen and Akabas, 2006). Oocyte holding potential was −80 mV for Km determination. For current-voltage (I-V) relationships, from a −60 mV holding potential step changes in membrane potential were applied for 2 s in 10 mV increments between −100 and 30 mV in the absence and presence of substrate.

[4] = target: rat jejunum brush border membranes; conditions: read-out: Ki, competitive inhibition of folic acid uptake; cited from earlier work
PCFT = test: [3H](6S)5-methylTHF uptake in HeLa cells transiently transfected with mutated PCFT cDNA; format: cell-based, human; conditions: pH 5.5, 37° C., 2 min; for [3H](6S)5-methylTHF uptake (transport function): 0.5 μM, transiently transfected HeLa cells; for residual transport activity as compared to the wild-type transporter: 0.5 μM [3H](6S)5-methylTHF, mock background subtracted
From the text: Analysis of G21 in a family with hereditary folate malabsorption. Members of a family with hereditary folate malabsorption were studied according to a protocol and Informed Consent in the subjects' native language approved by the Albert Einstein College of Medicine IRB (CCI#2006-279). Whole blood was used for isolation of genomic DNA by a Genomic DNA Purification Kit (Gentra Systems, Minneapolis, Minn.) and to generate EBV-transformed human B-lymphoblastoid cell lines in the Einstein Human Genetics Cell Culture Core. Each G21 exon with flanking regions was amplified using Taq DNA polymerase, Q-solution (Qiagen, Valencia, Calif.) and primers listed in Table 4. G21 or RFC cDNA were amplified from lymphoblastoid cells by RT-PCR. PCR products were gel-purified and sequenced in an ABI 3730 DNA Analyzer (Applied Biosystems). The mutated region was verified by sequencing both DNA strands. An expression vector of the mutated G21 in which exon 3 was skipped (GenBank accession number: BC010691) was purchased from Open Biosystems and, along with pcDNA3.1(+)G21 (wild type), was used for an assay of transport function. Western blot analysis on whole cell lysate and cellular localization was performed as described above.
Site-directed mutagenesis. PCFT cDNA was cloned in pCDNA 3.1 (+) and mutations in the coding region were introduced by site-directed mutagenesis using PfuTurbo® DNA polymerase (Stratagene, La Jolla, Calif.) as described previously (Zhao et al., 2000). The entire PCFT coding region in the plasmid was sequenced to verify the presence of the mutation.
Transient transfections and assessment of 5-methylTHF transport. Plasmid concentrations were determined by UV absorption and verified by agarose gel analysis. HeLa cells were seeded and transiently transfected in 20 ml glass scintillation vials (Research Products International Corp., Mt. Prospect, Ill.) and after two days, [^3H]5-methylTHF uptake was assessed (Qiu et al., 2006). EBV-transformed B-lymphoblastoid cells, generated from blood (P6 and P7), were washed twice with, and resuspended in, unbuffered saline (160 mM NaCl, 5 mM KCl, 2 mM MgCl2, 5 mM glucose). Uptake was initiated by injection of the cell suspension into MES-buffered saline (pH 5.5) containing 0.5 μM [^3H]5-methylTHF. Surface binding was assessed by measuring [^3H]5-methylTHF associated with cells at 0° C. and the bound component was subtracted from total uptake.

[5] = changing the pH from 5.5 to 6.5
[6] = increasing the pH from 6.5 to 7.5
[7] = 10 μM FCCP, 20 min pre-incubation, extracellular pH 5.5, 2 μM substrate

Question: Which “inhibitory effect on uptake of 2 μM [3H]folic acid” value (shortened to “inhibitory effect on uptake of 2 μM”) (G21 (PCFT) [1]) does the source give for C[C@H](CCC(=O)NCCS(=O)(=O)O)[C@H]1CC[C@H]2[C@@H]3[C@H](O)C[C@@H]4C[C@H](O)CC[C@]4(C)[C@H]3C[C@H](O)[C@]12C [taurocholic acid] here?
Answer: Its value is “did not inhibit”.

Question: Which “inhibitory effect on uptake of 2 μM” value (G21 (PCFT) [1]) does the source give for C[C@]12CC[C@@H]3c4ccc(OS(=O)(=O)O)cc4CC[C@H]3[C@@H]1CCC2=O [estrone-3-sulfate] here?
Answer: Its value is “did not inhibit”.

Question: For Nc1nc2c(c(=O)[nH]1)N(C=O)[C@@H](CNc1ccc(C(=O)N[C@@H](CCC(=O)O)C(=O)O)cc1)CN2 [(6S)5-FTHF, (6S)5-formyltetrahydrofolate], which “inhibitory effect on uptake of 2 μM” value (G21 (PCFT) [1]) is on record?
Answer: Its value is “more potent than the unnatural 6R isomer”.

Question: What about the G21-mediated transport activity (G21 (PCFT) [2]) of the same molecule?
Answer: Its G21-mediated transport activity is “residual activity”.

Question: With Nc1ccc(C(=O)NCC(=O)O)cc1 [para-aminohippuric acid] as the molecule, how does the “inhibitory effect on uptake of 2 μM” value (G21 (PCFT) [1]) read?
Answer: Its value is “did not inhibit”.

Question: Which “shift of reversal potential” value (G21 (PCFT) [3]; [5]) does the source give for CN1c2c(nc(N)[nH]c2=O)NC[C@@H]1CNc1ccc(C(=O)N[C@@H](CCC(=O)O)C(=O)O)cc1 [(6S)5-MTHF, (6S)5-methyltetrahydrofolate] here?
Answer: Its value is −6 mV.

Question: And the “shift of reversal potential” value (G21 (PCFT) [3]; [6])?
Answer: The value was −30 mV.

Question: And the Km (G21 (PCFT) [3]; pH 5.5, holding potential −80 mV)?
Answer: Its Km is 0.53 ± 0.04 µM.

Question: And the Km (G21 (PCFT) [3]; pH 6.5, holding potential −80 mV)?
Answer: The Km was 0.78 ± 0.14 µM.

Question: And the “inhibitory effect on uptake of 2 μM” value (G21 (PCFT) [1])?
Answer: The value was “comparable to those of (6S)5-FTHF”.

Question: What about the G21-mediated transport activity (G21 (PCFT) [2]) of the same molecule?
Answer: The G21-mediated transport activity was “residual activity”.

Question: For O=C1OC(c2ccc(O)c(S(=O)(=O)O)c2)(c2ccc(O)c(S(=O)(=O)O)c2)c2c(Br)c(Br)c(Br)c(Br)c21 [Bromosulphopthalein], which “inhibitory effect on uptake of 2 μM” value (G21 (PCFT) [1]) is on record?
Answer: The value was “did not inhibit”.

Question: With CN1c2c(nc(N)[nH]c2=O)NCC1CNc1ccc(C(=O)N[C@@H](CCC(=O)O)C(=O)O)cc1 (mixture of isomers) [racemic 5-MTHF] as the molecule, how does the Ki [4] read?
Answer: Its Ki is 1.4 µM.

Question: Which “shift of reversal potential” value (G21 (PCFT) [3]; [5]) does the source give for CN(Cc1cnc2nc(N)nc(N)c2n1)c1ccc(C(=O)N[C@@H](CCC(=O)O)C(=O)O)cc1 [MTX, methotrexate] here?
Answer: Its value is −8 mV.

Question: What about the “shift of reversal potential” value (G21 (PCFT) [3]; [6]) of the same molecule?
Answer: The value was −36 mV.

Question: What about the “lowest concentration at which current was detected” value (G21 (PCFT) [3]; pH 5.5, Vh −80 mV) of the same molecule?
Answer: Its value is 0.1 µM.

Question: And the “current amplitude larger than (6S)5-MTHF-induced current” value (G21 (PCFT) [3]; saturating concentrations, same oocyte, pH 5.5)?
Answer: The value was 86±11%.

Question: And the “inhibitory effect on uptake of 2 μM” value (G21 (PCFT) [1])?
Answer: The value was “less effective competitor than folic acid”.

Question: Which “inhibitory effect on uptake of 2 μM” value (G21 (PCFT) [1]) does the source give for Nc1nc2[nH]cc(CCc3ccc(C(=O)N[C@@H](CCC(=O)O)C(=O)O)cc3)c2c(=O)[nH]1 [pemetrexed] here?
Answer: Its value is “most potent competitor”.

Question: For N#CC(C#N)=NNc1ccc(OC(F)(F)F)cc1 [FCCP, carbonyl cyanide 4-(trifluoromethoxy) phenylhydrazone], which “effect on [3H]MTX uptake” value (G21 (PCFT) [2]; [7]) is on record?
Answer: The value was “markedly decreased”.

Question: What about the “effect on [3H]folic acid uptake” value (G21 (PCFT) [2]; [7]) of the same molecule?
Answer: Its value is “markedly decreased”.

Question: Which “inhibitory effect on uptake of 2 μM” value (G21 (PCFT) [1]) does the source give for C[C@H](CCC(=O)O)[C@H]1CC[C@H]2[C@@H]3[C@H](O)C[C@@H]4C[C@H](O)CC[C@]4(C)[C@H]3C[C@H](O)[C@]12C [cholic acid] here?
Answer: The value was “did not inhibit”.

B1: mutated G21 carrier: exon 3-deleted G21 (PCFT) protein, in-frame deletion of 28 amino acids (protein, listed as Homo sapiens)
chain: MEGSASPPEKPRARPAAAVLCRGPVEPLVFLANFALVLQGPLTTQYLWHRFSADLGYNGTRQRGGCSNRSADPTMQEVETLTSHWTLYMNVGGFLVGLFSSTLLGAWSDSVGRRPLLVLASLGLLLQALVSVFVVQLQLHVGYFVLGRILCALLGDFGGLLAASFASVADVSSSRSRTFRMALLEASIGVAGMLASLLGGHWLRAQGYANPFWLALALLIAMTLYAAFCFGETLKEPKSTRLFTFRHHRSIVQLYVAPAPEKSRKHLALYSLAIFVVITVHFGAQDILTLYELSTPLCWDSKLIGYGSAAQHLPYLTSLLALKLLQYCLADAWVAEIGLAFNILGMVVFAFATITPLMFTGALFSAVACVNSLAMLTASGIFNSLYPATLNFMKGFPFLLGAGLLLIPAVLIGMLEKADPHLEFQQFPQSP
Question: For B1, which “[3H](6S)5-methylTHF uptake (transport function)” value (shortened to “[3H](6S)5-methylTHF uptake”) (PCFT) is on record?
Answer: The value was “lacked transport function”.

B2: G147R: human PCFT mutant protein (protein, UniProt Q96NT5 1-459, looked up, variant G147R)
Proton-coupled folate …: T1 sequence (Q96NT5 1-459) with G147R
Question: Which “residual transport activity as compared to the wild-type transporter” value (PCFT) does the source give for B2 here?
Answer: The value was 7.0%.

B3: P425R: human PCFT mutant protein (protein, UniProt Q96NT5 1-459, looked up, variant P425R)
Proton-coupled folate …: T1 sequence (Q96NT5 1-459) with P425R
Question: For B3, which “residual transport activity as compared to the wild-type transporter” value (PCFT) is on record?
Answer: Its value is 3.4%.

B4: R113S: human PCFT mutant protein (protein, UniProt Q96NT5 1-459, looked up, variant R113S)
Proton-coupled folate …: T1 sequence (Q96NT5 1-459) with R113S
Question: Which “[3H](6S)5-methylTHF uptake” value (PCFT) does the source give for B4 here?
Answer: The value was “essentially no uptake”.

B5: S318R: human PCFT mutant protein (protein, UniProt Q96NT5 1-459, looked up, variant S318R)
Proton-coupled folate …: T1 sequence (Q96NT5 1-459) with S318R
Question: Which “[3H](6S)5-methylTHF uptake” value (PCFT) does the source give for B5 here?
Answer: The value was “essentially no uptake”.

From patent US7888025B2, “Intestinal folate transporter method” (Albert Einstein College of Medicine of Yeshiva University, priority 2007, dated 2011)
